According to patent publication US6855707B2, “Method for the treatment of lipid and glucose metabolism disorders” (Pliva D.D., priority 1996, dated 2005):

Key:
HMG-CoA reductase = target: T1, HMG-CoA reductase (Homo sapiens, UniProt P04035); details: in vivo; cited from earlier work
T1 sequence (P04035 1-888): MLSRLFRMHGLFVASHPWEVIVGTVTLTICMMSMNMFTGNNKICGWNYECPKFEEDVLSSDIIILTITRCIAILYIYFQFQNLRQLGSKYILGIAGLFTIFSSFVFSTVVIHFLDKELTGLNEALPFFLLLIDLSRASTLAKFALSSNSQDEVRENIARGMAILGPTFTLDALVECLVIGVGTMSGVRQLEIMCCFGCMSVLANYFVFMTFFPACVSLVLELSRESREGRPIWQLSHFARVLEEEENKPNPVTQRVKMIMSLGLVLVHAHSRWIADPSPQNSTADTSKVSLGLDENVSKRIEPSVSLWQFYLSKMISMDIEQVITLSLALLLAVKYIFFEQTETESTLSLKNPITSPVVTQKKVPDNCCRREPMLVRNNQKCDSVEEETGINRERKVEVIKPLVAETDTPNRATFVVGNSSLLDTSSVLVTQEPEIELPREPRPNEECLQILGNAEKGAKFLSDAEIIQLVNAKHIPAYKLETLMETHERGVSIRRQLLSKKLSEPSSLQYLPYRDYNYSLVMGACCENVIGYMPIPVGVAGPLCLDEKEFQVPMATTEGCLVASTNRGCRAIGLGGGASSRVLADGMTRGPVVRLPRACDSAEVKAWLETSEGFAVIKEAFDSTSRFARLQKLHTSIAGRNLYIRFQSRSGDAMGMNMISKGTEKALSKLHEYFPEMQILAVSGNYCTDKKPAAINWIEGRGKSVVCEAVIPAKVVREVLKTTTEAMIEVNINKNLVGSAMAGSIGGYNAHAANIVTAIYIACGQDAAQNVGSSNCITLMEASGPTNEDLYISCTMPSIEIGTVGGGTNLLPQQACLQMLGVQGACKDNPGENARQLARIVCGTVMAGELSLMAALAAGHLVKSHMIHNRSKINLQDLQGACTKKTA

ob/ob mice = experiment: Example 1: two-week treatment of female ob/ob mice (40-70 g) at light onset; format: in vivo; details: single drug, two weeks at light onset
Method: Female ob/ob mice (40-70 g bw) were treated for two weeks with either 1) bromocriptine (11 mg/kg) at light onset, 2) SKF38393 (20 mg/kg) at light onset, 3) bromocriptine plus SKF38393 at light onset, or 4) vehicle at light onset.

C57BL/6 ob/ob mice = experiment: Example 2: two-week treatment of C57BL/6 ob/ob mice at 1 HALO; format: in vivo; details: for reduction of plasma free fatty acid level / reduction of plasma glucose concentration / reduction of plasma insulin level / reduction of plasma triglyceride level: mouse, in vivo; for Food Consumption / Plasma FFA / Plasma Glucose / Plasma Insulin / Plasma TG / Whole Body Lipid-Glycerol (% BW) / Whole Body Lipid-Glycerol (g) / Whole Body Protein (% BW) / Whole Body Protein (g) / Final Body Weight: ob/ob mice, two weeks; for Final Body Weight: sacrificed 24-26 hours after last treatment; for reducing body weight gain: single drug 10 mg/kg, two weeks at 1 HALO
Method: Different groups of 6-week old C57BL/6 ob/ob mice (lacking a functional leptin protein) were treated with either bromocriptine (“BC”) (10 mg/kg BW), SKF38393 (“SKF”) (10 mg/kg BW), both drugs, or vehicle for two weeks at 1 hour after light onset (HALO). Animals were held on 12-hour daily photoperiods and allowed to feed ad libitum. Food consumption was monitored daily for 3 days before the initiation of treatment throughout the 14-day treatment period. Animals were sacrificed between 1 and 3 HALO on the day following the final treatment (i.e., 24-26 hours after last injection) and plasma was collected for the analyses of insulin, glucose, and lipids while the carcasses were solubilized in ethanolic KOH and analyzed for protein and lipid content. Bromocriptine and SKF38393, individually, were ineffective in reducing body weight gain where as SKF, but not BC, reduced food consumption (19%, P<0.01). However, the combined treatment of bromocriptine and SKF38393 (BC/SKF) decreased food consumption by 46% (from 4.8±0.2 to 2.6±g/day; P<0.001) and body weight by 15% (from a 3.2 g increase in controls to a 4.3 g decrease; P<0.005) in 14 days of treatment (FIG. 16). Relative to controls, in absolute terms, the lipid content of the BC/SKF treated animals was decreased by 40% (from 4.2±0.2 to 2.5±0.3 g glycerol/animal; P<0.0003) whereas the protein content increased 8% (from 3.7±0.08 to 4.0±0.08 g/animal; P<0.05). […] This effect on body composition was observed by SKF (P<0.003) or BC (P<0.04) treatments alone, although to a lesser extent than by BC/SKF combination (P<0.05).

[1] = timed bromocriptine monotherapy, diastolic blood pressure; format: in vivo; details: humans, 4.8 mg/day at 8:00 AM
From the text: The benefits of the invention are not limited to modifying and regulating lipid and glucose metabolism. Other bodily functions, such as blood pressure, can be beneficially modified and regulated by timed administration of a D2 agonist (as monotherapy) in the dosage range disclosed above. […] Conjoined administration of a dopamine D1 agonist and […]

Structure (SMILES)	increase in HDL concentrations (HMG-CoA reductase)	reductions in hyperphagia, body weight gain, and obesity (ob/ob mice)	reduction of food consumption (C57BL/6 ob/ob mice; BC 10 mg/kg, SKF 10 mg/kg, 14 days)	reduction of plasma free fatty acid level (C57BL/6 ob/ob mice)	reduction of plasma glucose concentration (C57BL/6 ob/ob mice)	reduction of plasma insulin level (C57BL/6 ob/ob mice)	reduction of plasma triglyceride level (C57BL/6 ob/ob mice)	Food Consumption (C57BL/6 ob/ob mice)	Plasma FFA (C57BL/6 ob/ob mice)	Plasma Glucose (C57BL/6 ob/ob mice)	Plasma Insulin (C57BL/6 ob/ob mice)	Plasma TG (C57BL/6 ob/ob mice)	Whole Body Lipid-Glycerol (% BW) (C57BL/6 ob/ob mice)	Whole Body Lipid-Glycerol (g) (C57BL/6 ob/ob mice)	Whole Body Protein (% BW) (C57BL/6 ob/ob mice)	Whole Body Protein (g) (C57BL/6 ob/ob mice)	Final Body Weight (C57BL/6 ob/ob mice)	reducing body weight gain (C57BL/6 ob/ob mice)	diastolic blood pressure [1]
CC[C@H](C)C(=O)O[C@H]1C[C@@H](C)C=C2C=C[C@H](C)[C@H](CC[C@@H]3C[C@@H](O)CC(=O)O3)[C@H]21 [lovastatin]	5-10%	–	–	–	–	–	–	–	–	–	–	–	–	–	–	–	–	–	–
Oc1cc2c(cc1O)C(c1ccccc1)CNCC2 (centres unmarked) [SKF38393]	–	moderate reductions	19%	neither BC nor SKF individually, reduced	43%	not affected	neither BC nor SKF individually, reduced	3.9 ± 0.07^3,4,5 g/day	671 ± 36^3 uM	218 ± 22^2 mg/dl	50 ± 13 ng/mL	234 ± 22^1 mg/dl	6.0 ± 0.2^1 % BW	3.1 ± 0.1^1 g	7.9 ± 0.1^1 % BW	4.1 ± 0.04^2 g	52 ± 0.7^2 g	ineffective	–
CC(C)C[C@H]1C(=O)N2CCC[C@H]2[C@]2(O)O[C@](NC(=O)[C@@H]3C=C4c5cccc6[nH]c(Br)c(c56)C[C@H]4N(C)C3)(C(C)C)C(=O)N12 [bromocriptine, 2-bromo-α-ergocriptine]	–	moderate reductions	–	neither BC nor SKF individually, reduced	31%	50%	neither BC nor SKF individually, reduced	4.5 ± 0.2^2,5 g/day	818 ± 64^2 uM	262 ± 25^1 mg/dl	30 ± 4^2 ng/ml	405 ± 101 mg/dL	7.0 ± 0.2^1 % BW	3.7 ± 0.1^1 g	7.5 ± 0.1^1 % BW	4.0 ± 0.1^1 g	53 ± 0.7^2 g	ineffective	decrease significantly
